We go through one compound from article PMC3635830 (Biochemistry, 2013).

The assay concerns the target tryptophan 2-monooxygenase (TMO) (Pseudomonas savastanoi, UniProt P06617). The assay can be described thus: X-ray crystal structure, […] Å. The following applies: FAD-binding domain; IAM also bound.

Sequence of tryptophan 2-monooxygenase (TMO) (P06617 whole entry, the tested form may be a part): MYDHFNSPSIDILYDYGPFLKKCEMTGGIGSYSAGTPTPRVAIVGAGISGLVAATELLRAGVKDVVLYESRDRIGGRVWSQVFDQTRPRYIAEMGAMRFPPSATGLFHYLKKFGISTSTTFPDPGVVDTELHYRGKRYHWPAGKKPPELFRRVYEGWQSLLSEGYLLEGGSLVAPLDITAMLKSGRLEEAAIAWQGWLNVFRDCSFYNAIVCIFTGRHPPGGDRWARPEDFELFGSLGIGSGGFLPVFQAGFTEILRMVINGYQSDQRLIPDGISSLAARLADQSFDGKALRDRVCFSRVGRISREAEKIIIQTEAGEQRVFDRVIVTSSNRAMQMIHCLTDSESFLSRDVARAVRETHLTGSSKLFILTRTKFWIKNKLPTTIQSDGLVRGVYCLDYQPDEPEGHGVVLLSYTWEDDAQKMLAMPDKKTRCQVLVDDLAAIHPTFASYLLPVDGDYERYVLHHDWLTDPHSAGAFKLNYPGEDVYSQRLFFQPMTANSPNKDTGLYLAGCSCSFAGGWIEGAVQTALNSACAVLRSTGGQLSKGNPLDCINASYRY

For the compound `Cc1cc2nc3c(=O)[nH]c(=O)nc-3n(C[C@H](O)[C@H](O)[C@H](O)COP(=O)(O)OP(=O)(O)OC[C@H]3O[C@@H](n4cnc5c(N)ncnc54)[C@H](O)[C@@H]3O)c2cc1C` [FAD], the “X-ray crystal structure, 1.95 Å” value is “The FAD cofactor and the bound indole-3-acetamide occupy a large internal cavity”.
